Test results taken from a compilation of properties of binary mixtures (doi:10.1016/j.molliq.2022.119944).

Experiment: xn = mol fraction of the nth substance listed
Conditions: 101.3 kPa

C=Cn1cc[n+](CCCC)c1.NCC(=O)[O-] + O
Conditions | electrical conductivity [S/m] | viscosity [mPa·s]
293.15 K, x1 = 0.1 | – | 7.17
293.15 K, x1 = 0.3 | – | 23.93
293.15 K, x1 = 0.7 | – | 403
293.15 K, x1 = 1 | – | 11700
303.15 K, x1 = 0.1 | 1.04 | 7.07
303.15 K, x1 = 0.3 | 1.75 | 19.67
303.15 K, x1 = 0.7 | 1.58 | 282
303.15 K, x1 = 0.9 | 0.412 | 1068
308.15 K, x1 = 0.3 | 1.94 | –
308.15 K, x1 = 0.5 | 2.95 | –
313.15 K, x1 = 0.1 | 1.19 | 6.73
313.15 K, x1 = 0.3 | 2.16 | 14.44
313.15 K, x1 = 0.5 | 3.34 | 33.65
313.15 K, x1 = 0.7 | 2.31 | 199
313.15 K, x1 = 0.9 | 0.653 | 730
313.15 K, x1 = 1 | 0.013 | 5900
318.15 K, x1 = 0.1 | 1.29 | –
318.15 K, x1 = 0.3 | 2.44 | –
318.15 K, x1 = 0.7 | 2.87 | –
318.15 K, x1 = 0.9 | 0.89 | –
318.15 K, x1 = 1 | 0.018 | –
323.15 K, x1 = 0.1 | 1.35 | 6.71
323.15 K, x1 = 0.3 | 2.63 | 11.28
323.15 K, x1 = 0.5 | 4.09 | 28.63
323.15 K, x1 = 0.7 | 3.25 | 168
323.15 K, x1 = 0.9 | 1.2 | 570
323.15 K, x1 = 1 | 0.021 | 3100
333.15 K, x1 = 0.1 | – | 5.87
333.15 K, x1 = 0.5 | – | 28.1
333.15 K, x1 = 0.7 | – | 156
333.15 K, x1 = 0.9 | – | 540
343.15 K, x1 = 0.1 | – | 5.29
343.15 K, x1 = 0.5 | – | 22.04
343.15 K, x1 = 0.7 | – | 132
343.15 K, x1 = 0.9 | – | 540
353.15 K, x1 = 0.1 | – | 5.08
353.15 K, x1 = 0.3 | – | 9.83
353.15 K, x1 = 0.7 | – | 104.8

C=C[n+]1ccn(CCCC)c1.N[C@@H](Cc1c[nH]cn1)C(=O)[O-] + O
Conditions | electrical conductivity [S/m] | viscosity [mPa·s]
293.15 K, x1 = 0.1 | – | 2.55
293.15 K, x1 = 0.3 | – | 10.63
293.15 K, x1 = 0.5 | – | 26.91
293.15 K, x1 = 0.7 | – | 92.2
293.15 K, x1 = 0.9 | – | 1475
293.15 K, x1 = 1 | – | 8300
303.15 K, x1 = 0.1 | 2.65 | 2.35
303.15 K, x1 = 0.5 | 3.61 | 21.73
303.15 K, x1 = 0.7 | 2.67 | 59.5
303.15 K, x1 = 1 | 0.07 | 5300
308.15 K, x1 = 0.1 | 2.94 | –
308.15 K, x1 = 0.3 | 3.79 | –
308.15 K, x1 = 0.5 | 3.85 | –
308.15 K, x1 = 0.7 | 2.95 | –
308.15 K, x1 = 0.9 | 0.75 | –
308.15 K, x1 = 1 | 0.089 | –
313.15 K, x1 = 0.1 | 3.12 | 2.08
313.15 K, x1 = 0.3 | 4.12 | 5.88
313.15 K, x1 = 0.5 | 4.08 | 17.2
313.15 K, x1 = 0.7 | 3.27 | 43.6
313.15 K, x1 = 0.9 | 0.99 | 1026
313.15 K, x1 = 1 | 0.123 | 2700
318.15 K, x1 = 0.1 | 3.32 | –
318.15 K, x1 = 0.3 | 4.38 | –
318.15 K, x1 = 0.5 | 4.37 | –
318.15 K, x1 = 0.7 | 3.6 | –
318.15 K, x1 = 0.9 | 1.27 | –
318.15 K, x1 = 1 | 0.162 | –
323.15 K, x1 = 0.1 | 3.58 | 1.7
323.15 K, x1 = 0.3 | 4.7 | 4.81
323.15 K, x1 = 0.5 | 4.58 | 14.68
323.15 K, x1 = 0.7 | 3.83 | 33.63
323.15 K, x1 = 0.9 | 1.64 | 930
333.15 K, x1 = 0.1 | – | 1.46
333.15 K, x1 = 0.5 | – | 14.17
333.15 K, x1 = 0.7 | – | 29.24
333.15 K, x1 = 0.9 | – | 550
333.15 K, x1 = 1 | – | 810
343.15 K, x1 = 0.1 | – | 1.04
343.15 K, x1 = 0.3 | – | 4
343.15 K, x1 = 0.5 | – | 13.4
343.15 K, x1 = 0.9 | – | 327
343.15 K, x1 = 1 | – | 500
353.15 K, x1 = 0.1 | – | 0.95
353.15 K, x1 = 0.3 | – | 3.68
353.15 K, x1 = 0.7 | – | 29
353.15 K, x1 = 0.9 | – | 116
353.15 K, x1 = 1 | – | 331
